Tests used:
[1] = Cell viability by CellTiter-Glo 2.0 (intracellular ATP) in HepG2.117 cells; type: cell-based; conditions: human, CellTiter-Glo 2.0, HepG2.117 cells, 3 days incubation
Procedure: (§1) The following assay procedure describes the HBV antiviral assay, using HepG2.117 cells, which carry a stably integrated genotype D HBV genome under the control of a Tet-off promoter, and intracellular HBV DNA quantification as endpoint. Cell viability is assessed in parallel by measuring the intracellular ATP content using CellTiter-Glo 2.0 (Promega).
(§2) On day 1, medium is removed from each well, the test articles are diluted in culture medium without doxcycyline and 100 μL was added to cell culture wells (9 concentrations, 4-fold dilution). For each plate, 6 untreated (merely DMSO) wells are included. The final concentration of DMSO in the culture medium is 2%. Each plate is prepared in duplicate (one for HBV DNA extraction, one for CellTiter-Glo 2.0 measurement). The cells are incubated at 37° C. and 5% CO2 for 3 days.
(§3) On day 4, cell viability is assessed using CellTiter-Glo 2.0 and cell lysates are prepared for HBV DNA extraction and subsequent quantification by qPCR.
Using the other plates, the cell viability is quantified by CellTiter-Glo 2.0 according to the manufacturer's manual. In brief, 100 μL of reagent solution is added to the culture plates and shaken for 2′. The plates are incubated at rt for 10 min and luminescence signal is subsequently measured on a VarioSkan Lux (ThermoFisher) plate reader.
(§4) Cell viability is calculated as follows: % Cell viability=(luminescence value of test sample)/(average luminescence value of 2% DMSO control)×100%. HBV DNA inhibition was calculated as follows: 100−(HBV DNA copy number of test sample)/(average HBV DNA copy number of 2% DMSO control)×100%. No normalization to entecavir is required due to the excellent dynamic window of this assay. The CC50, EC50 and EC90 values were determined by dose-response curves fitted using non-linear regression.

HBV = assay: HBV-DNA antiviral assay using HepG2.117 cells; type: cell-based, HBV genotype D; conditions: Hepatitis B virus, 72 h; HBV DNA inhibition, intracellular HBV DNA by qPCR, HepG2.117 cells, 3 days incubation; read-out: EC50
Procedure: as §1
On day 0, HepG2.117 cells (which are maintained in routine cell culture with doxycycline present in the medium at a final concentration of 1 μg/mL) are seeded in 96-well plates (white with clear bottom) at a density of 2.0×10^4 cells/well (0.1 mL/well) in medium without doxycycline to induce pgRNA transcription and subsequent formation of HBV particles. The cells are incubated at 37° C. and 5% CO2.
as §2, §3
Medium is removed from each well and 100 μL of 0.33% NP-40 in H2O was added to each well. Plates are sealed, incubated at 4° C. for 5 mins, vortexed extensively and centrifuged briefly. Next, 35 μL of lysate is added to 65 μL QuickExtract DNA Extraction Solution (Epicentre) in a PCR plate for each well. PCR plate is incubated at 65° C. for 6 mins, 98° C. for 2 mins and finally cooled to 4° C. HBV DNA is then quantified by qPCR with HBV-specific primers and probes as specified in Table 2 using the Bio-Rad SSOAdvanced Universal Probes Supermix on a CFX96 machine (Bio-Rad). The PCR cycle program consisted of 95° C. for 3 mins, followed by 40 cycles at 95° C. for 10 sec and 60° C. for 30 sec.
A DNA standard is prepared by dilution of an IDT gBlock corresponding to the amplicon with concentrations ranging from 10^2 to 10^8 copies/input (i.e., per 4 μL) and used to generate a standard curve by plotting Cq values vs. HBV DNA standard concentration. The quantity of HBV DNA in each sample is determined by interpolating from the standard curve.
as §4

Compound | CC50 at 3 days [1] | EC50 (HBV)
C=C[C@H](C)Nc1nc2c(c(=O)n1-c1ccc(C(=O)NC)cn1)C[C@@H](C)N(C(=O)c1ccc(Br)c(C(F)(F)F)c1)C2 [Compound 24, 6-((R)-7-(4-bromo-3-(trifluoromethyl)benzoyl)-2-(((S)-but-3-en-2-yl)amino)-6-methyl-4-oxo-5,6,7,8-tetrahydropyrido[3,4-d]pyrimidin-3(4H)-yl)-N-methylnicotinamide] | > 500 nM | < 50 nM
C=C[C@H](C)Nc1nc2c(c(=O)n1-c1ccc3c(c1)ncn3C)C[C@@H](C)N(C(=O)c1ccc(Br)c(C(F)(F)F)c1)C2 [Compound 17, (R)-7-(4-bromo-3-(trifluoromethyl)benzoyl)-2-(((S)-but-3-en-2-yl)amino)-6-methyl-3-(1-methyl-1H-benzo[d]imidazol-5-yl)-5,6,7,8-tetrahydropyrido[3,4-d]pyrimidin-4(3H)-one] | > 500 nM | < 50 nM
C=C[C@H](C)Nc1nc2c(c(=O)n1-c1ccc3c(cnn3C)c1)C[C@@H](C)N(C(=O)c1ccc(Br)c(C(F)(F)F)c1)C2 [Compound 33, (6R)-7-[4-bromo-3-(trifluoromethyl)benzoyl]-6-methyl-2-[[(1S)-1-methylallyl]amino]-3-(1-methylindazol-5-yl)-6,8-dihydro-5H-pyrido[3,4-d]pyrimidin-4-one] | > 50000 nM | < 50 nM
C=C[C@H](C)Nc1nc2c(c(=O)n1-c1ccc3ncn(C)c3c1)C[C@@H](C)N(C(=O)c1ccc(Br)c(C(F)(F)F)c1)C2 [Compound 25, (R)-7-(4-bromo-3-(trifluoromethyl)benzoyl)-2-(((S)-but-3-en-2-yl)amino)-6-methyl-3-(1-methyl-1H-benzo[d]imidazol-6-yl)-5,6,7,8-tetrahydropyrido[3,4-d]pyrimidin-4(3H)-one] | 29700 nM | < 50 nM
C=C[C@H](C)Nc1nc2c(c(=O)n1-c1cc(F)c3c(c1)ncn3C)C[C@@H](C)N(C(=O)c1ccc(Br)c(C(F)(F)F)c1)C2 [Compound 48, (6R)-7-[4-bromo-3-(trifluoromethyl)benzoyl]-3-(7-fluoro-1-methyl-benzimidazol-5-yl)-6-methyl-2-[[(1S)-1-methylallyl]amino]-6,8-dihydro-5H-pyrido[3,4-d]pyrimidin-4-one] | 26000 nM | < 50 nM
C=C[C@H](C)Nc1nc2c(c(=O)n1-c1ccc(OCC(C)O)cc1)C[C@@H](C)N(C(=O)c1ccc(Br)c(C(F)(F)F)c1)C2 (stereo in doubt) [Compound 31, (R)-7-(4-bromo-3-(trifluoromethyl)benzoyl)-2-(((S)-but-3-en-2-yl)amino)-3-(4-((S)-2-hydroxypropoxy)phenyl)-6-methyl-5,6,7,8-tetrahydropyrido[3,4-d]pyrimidin-4(3H)-one] | 29600 nM | < 50 nM
C=C[C@H](C)Nc1nc2c(c(=O)n1-c1ccc(C(=O)NC)cc1Cl)C[C@@H](C)N(C(=O)c1ccc(Br)c(C(F)(F)F)c1)C2 (atropisomer, axis not shown) [Compound 44, 4-[(6R)-7-[4-bromo-3-(trifluoromethyl)benzoyl]-6-methyl-2-[[(1S)-1-methylallyl]amino]-4-oxo-6,8-dihydro-5H-pyrido[3,4-d]pyrimidin-3-yl]-3-chloro-N-methyl-benzamide] | > 50000 nM | < 50 nM
C=C[C@H](C)Nc1nc2c(c(=O)n1-c1cc(Cl)c3c(cnn3C)c1)C[C@@H](C)N(C(=O)c1ccc(Br)c(C(F)(F)F)c1)C2 [Compound 34] | 11600 nM | < 50 nM
C=C[C@H](C)Nc1nc2c(c(=O)n1-c1ccc(C(=O)NC)nc1)C[C@@H](C)N(C(=O)c1ccc(Br)c(C(F)(F)F)c1)C2 [Compound 41, 5-[(6R)-7-[4-bromo-3-(trifluoromethyl)benzoyl]-6-methyl-2-[[(1S)-1-methylallyl]amino]-4-oxo-6,8-dihydro-5H-pyrido[3,4-d]pyrimidin-3-yl]-N-methyl-pyridine-2-carboxamide] | > 50000 nM | < 50 nM
C=C[C@@H](C)Nc1nc2c(c(=O)n1-c1ccc(-c3nncn3C)cc1)C[C@@H](C)N(C(=O)c1ccc(Br)c(C(F)(F)F)c1)C2 [Compound 22, (R)-7-(4-bromo-3-(trifluoromethyl)benzoyl)-2-(((R)-but-3-en-2-yl)amino)-6-methyl-3-(4-(4-methyl-4H-1,2,4-triazol-3-yl)phenyl)-5,6,7,8-tetrahydropyrido[3,4-d]pyrimidin-4(3H)-one] | > 50000 nM | < 50 nM
C=CCNc1nc2c(c(=O)n1-c1ccc(C(=O)NC)cc1)C[C@@H](C)N(C(=O)c1ccc(Br)c(C(F)(F)F)c1)C2 [Compound 5] | > 50000 nM | < 50 nM
CNC(=O)c1ccc(-n2c(C#CCC(C)C)nc3c(c2=O)C[C@@H](C)N(C(=O)c2ccc(Br)c(C(F)(F)F)c2)C3)cc1 [Compound 23, (R)-4-(7-(4-bromo-3-(trifluoromethyl)benzoyl)-6-methyl-2-(4-methylpent-1-yn-1-yl)-4-oxo-5,6,7,8-tetrahydropyrido[3,4-d]pyrimidin-3(4H)-yl)-N-methylbenzamide] | 11700 nM | 50 to 500 nM
C=CC(C)Nc1nc2c(c(=O)n1-c1ccc(-c3[nH]nnc3C)cc1)C[C@@H](C)N(C(=O)c1ccc(Br)c(C(F)(F)F)c1)C2 (single isomer, unassigned) [Compound 3a] | > 500 nM | < 50 nM
C#Cc1ccc(C(=O)N2Cc3nc(N[C@@H](C)C=C)n(-c4ccc(C(=O)NC)cc4)c(=O)c3C[C@H]2C)cc1C(F)(F)F [Compound 50, 4-[(6R)-7-[4-ethynyl-3-(trifluoromethyl)benzoyl]-6-methyl-2-[[(1S)-1-methylallyl]amino]-4-oxo-6,8-dihydro-5H-pyrido[3,4-d]pyrimidin-3-yl]-N-methyl-benzamide] | > 50000 nM | < 50 nM
C=C[C@H](C)Nc1nc2c(c(=O)n1-c1cc3ncn(C)c3cc1F)C[C@@H](C)N(C(=O)c1ccc(Br)c(C(F)(F)F)c1)C2 [Compound 32a, (R)-7-(4-bromo-3-(trifluoromethyl)benzoyl)-2-(((S)-but-3-en-2-yl)amino)-3-(6-fluoro-1-methyl-1H-benzo[d]imidazol-5-yl)-6-methyl-5,6,7,8-tetrahydropyrido[3,4-d]pyrimidin-4(3H)-one] | 29500 nM | < 50 nM
C=CC(Nc1nc2c(c(=O)n1-c1ccc(C(=O)NC)cc1)C[C@@H](C)N(C(=O)c1ccc(Br)c(C(F)(F)F)c1)C2)C1CC1 (some centres unmarked) [Compound 11a] | > 50000 nM | < 50 nM
C=C[C@H](C)Nc1nc2c(c(=O)n1-c1ccn3c(C)nnc3c1)C[C@@H](C)N(C(=O)c1ccc(Br)c(C(F)(F)F)c1)C2 [Compound 36, (6R)-7-[4-bromo-3-(trifluoromethyl)benzoyl]-6-methyl-2-[[(1S)-1-methylallyl]amino]-3-(3-methyl-[1,2,4]triazolo[4,3-a]pyridin-7-yl)-6,8-dihydro-5H-pyrido[3,4-d]pyrimidin-4-one] | > 50000 nM | < 50 nM
C=C[C@@H](C)Nc1nc2c(c(=O)n1-c1ccc(C(=O)NC)c(Cl)c1)C[C@@H](C)N(C(=O)c1ccc(Br)c(C(F)(F)F)c1)C2 [Compound 19, 4-((R)-7-(4-bromo-3-(trifluoromethyl)benzoyl)-2-(((R)-but-3-en-2-yl)amino)-6-methyl-4-oxo-5,6,7,8-tetrahydropyrido[3,4-d]pyrimidin-3(4H)-yl)-2-chloro-N-methylbenzamide] | > 500 nM | < 50 nM
C=C[C@H](C)Nc1nc2c(c(=O)n1-c1cc(C(=O)NC)n(C)n1)C[C@@H](C)N(C(=O)c1ccc(Br)c(C(F)(F)F)c1)C2 [Compound 9, 3-((R)-7-(4-bromo-3-(trifluoromethyl)benzoyl)-2-(((S)-but-3-en-2-yl)amino)-6-methyl-4-oxo-5,6,7,8-tetrahydropyrido[3,4-d]pyrimidin-3(4H)-yl)-N,1-dimethyl-1H-pyrazole-5-carboxamide] | > 50000 nM | < 50 nM

From patent publication US11957683B2, “Bicyclic compounds” (Aligos Therapeutics, Inc., priority 2021, dated 2024)
